For this assay, the target named is β-Secretase (human, recombinant) (Homo sapiens, UniProt P56817). Nature of the assay: β-Secretase inhibitory activity assay (fluorescent substrate, HPLC peak area of degradative fragment). The class given is biochemical. Particulars: inhibitor 2 μg/ml; for Peak area ± S.D.: mean ± S.D. of triplicates. Here is the method:
β-Secretase (human, recombinant), A fluorescent substrate [MOCAc-[…](Dnp) Arg-Arg-NH2] and a β-secretase inhibitor[[…]Sta-Val-Ala-Glu-Phe(Sta:(3S,4S)-4-amino-3-hydroxy-6-methylheptanoic acid)] Other reagents used in this study were analytical grade. Sesamin-sesamolin in different ratios prepared as per examples 10.
(§1) Samples in a dimethylsulfoxide solution (2 μl), at an appropriate concentration, were diluted with 78 μl of assay buffer (20 mM acetate buffer, pH=4.5 containing 1% triton X-100) in a 96-well microplate. 10 μl of β-secretase solution in assay buffer (17.4 μg protein/ml) was added to the diluted solution, and incubated at 37° C. for 20 min. After incubation, 10 μl of substrate solution with assay buffer (0.1 mM) was added and incubated at 37° C. for 2 h. Fifty μl of reaction solution was then added to 450 μl of 2.5 M sodium acetate solution to terminate the reaction. The diluted solution was analyzed by HPLC applying the conditions listed below. Column: L-column ODS (Chemicals Evaluation and Research Institute, Tokyo, Japan, 4.6 i.d.×250 mm), mobile phase; 0.1% (v/v) formic acid/acetonitrile (0.1% (v/v) formic acid); 0 min (9:1), 17.5 min (5.5:4.5), 17.6 min (0.5:9.5), 22.5 min (0.5:9.5), column temperature: 40° C., flow rate; 1 ml/min, detection; fluorescent of excitation at 325 nm and emission at 395 nm, injection volume; 20 μl. The peak area of the peak derived from the degradative fluorescent fragment (retention time 15.7 min) was integrated and the peak area was found. The inhibitory activity of the sample was calculated using the following equation.
Inhibition (%)=100−[(Peak area from sample group)/(Peak area from control group)×100]
β-Secretase (human, recombinant). A fluorescent substrate [MOCAc-[…](Dnp) Arg-Arg-NH2] and a β-secretase inhibitor[[…]Sta-Val-Ala-Glu-Phe(Sta:(3S,4S)-4-amino-3-hydroxy-6-methylheptanoic acid)]. Other reagents used in this study were analytical grade. Essential oil of turmeric (EOT) with different percentage of α-turmerone prepared as per examples 2.
as §1, with “temperature;” for “temperature:”
β-Secretase (human, recombinant), A fluorescent substrate [MOCAc-[…](Dnp) Arg-Arg-NH2] and a β-secretase inhibitor[[…]Sta-Val-Ala-Glu-Phe(Sta:(3S,4S)-4-amino-3-hydroxy-6-methylheptanoic acid)]. Other reagents used in this study were analytical grade.
Samples in a dimethylsulfoxide solution (2 μl), at an appropriate concentration, were diluted with […] of assay buffer (20 mM acetate buffer, pH=4.5 containing 1% triton X-100) in a 96-well microplate. 10 μl of β-secretase solution in assay buffer (17.4 μg protein/ml) was added to the diluted solution, and incubated at 37° C. for 20 min.

Non-standard residues stand in square brackets, D forms with d. No end group written: not given here. Sta = CC(C)C[C@H](N)[C@@H](O)CC(=O)O

Chain of β-Secretase (human, recombinant) (P56817 46-501): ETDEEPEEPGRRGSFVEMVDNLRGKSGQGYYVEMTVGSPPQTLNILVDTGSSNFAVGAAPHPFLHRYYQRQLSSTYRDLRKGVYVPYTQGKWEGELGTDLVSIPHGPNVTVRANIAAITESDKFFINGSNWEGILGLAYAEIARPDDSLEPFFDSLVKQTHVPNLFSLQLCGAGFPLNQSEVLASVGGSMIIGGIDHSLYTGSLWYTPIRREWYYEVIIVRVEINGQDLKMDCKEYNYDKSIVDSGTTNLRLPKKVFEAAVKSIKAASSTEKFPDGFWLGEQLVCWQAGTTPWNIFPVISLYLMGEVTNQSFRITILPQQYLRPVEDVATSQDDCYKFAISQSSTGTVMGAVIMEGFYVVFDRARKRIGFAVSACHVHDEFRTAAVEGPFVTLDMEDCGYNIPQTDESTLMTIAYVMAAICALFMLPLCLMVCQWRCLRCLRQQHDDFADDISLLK

Consider KTEEISEVN[Sta]VAEF [Inhibitor], for which the “Inhibition (%)” value by setting is: (Example 17) 47.33%; (Example 18) 45.67%; (Example 19) 48.31%; (Example 20) 48.8%; (Example 22) 45.77%. Moreover, the “Peak area ± S.D.” value by setting is: (Example 17) 2256512 ± 24323; (Example 18) 2386115 ± 25498; (Example 19) 2418426 ± 23621; (Example 20) 2299129 ± 25842; (Example 22) 2385632 ± 27453.

For the origin of these results see patent US20190255138A1, “A NATURAL COMPOSITION TO INHIBIT BETA-SECRETASE AND ENHANCE BIOAVAILABILITY COMPRISING OF TURMERIC AND SESAME SEED EXTRACT” (priority 2016, published 2019).
